Assay results as given in ChEMBL document CHEMBL3885861, “Open TG-GATES”.

Organism: Rattus norvegicus
Experiment: Open TG-GATES - Regimen: Daily Repeat
Type: toxicity, organism-based, Sprague-Dawley
Design: regimen Daily Repeat, gender Male, age 6 weeks
Settings: in vivo, po, route gavage; for APTT / Bas / Eos / Fbg / Hb / Ht / Lym / MCH / MCHC / MCV / Mono / Neu / PT / Plat / RBC / Ret / WBC: tissue Blood; for KIDNEY_L / KIDNEY_R / KIDNEY_TOTAL: tissue Kidney; for LIVER: tissue Liver; for A/G / ALP / ALT / AST / BUN / CRE / Ca / Cl / DBIL / GLC / IP / K / LDH / Na / PL / RALB / TBIL / TC / TG / TP / gamma-GTP: tissue Plasma
[1] = 0 mg/kg, 72 h, dose level Control, time 3 day
[2] = 0 mg/kg, […], dose level Control, time 7 day
[3] = 0 mg/kg, […], dose level Control, time 14 day
[4] = 0 mg/kg, […], dose level Control, time 28 day
[5] = 25 mg/kg, 72 h, dose level Low, time 3 day
[6] = 25 mg/kg, […], dose level Low, time 7 day
[7] = 25 mg/kg, […], dose level Low, time 14 day
[8] = 25 mg/kg, […], dose level Low, time 28 day

CCSCC[C@H](N)C(=O)O [ETHIONINE]
TERMINAL_BW [1]: 234.6 g
APTT [1]: 19.8 s
Bas [1]: 0%
Eos [1]: 1%
Fbg [1]: 226.8 mg/dL
Hb [1]: 13 g/dL
Ht [1]: 38.3%
Lym [1]: 78.2%
MCH [1]: 21 pg
MCHC [1]: 34%
MCV [1]: 61.7 fL
Mono [1]: 3%
Neu [1]: 17.2%
PT [1]: 12 s
Plat [1]: 126.2 x10_4/uL
RBC [1]: 621.6 x10_4/ul
Ret [1]: 5.9%
WBC [1]: 113.1 x10_2/uL
KIDNEY_L [1]: 1.1 g
KIDNEY_R [1]: 1.1 g
KIDNEY_TOTAL [1]: 2.1 g
LIVER [1]: 10.9 g
A/G [1]: 1.6
ALP [1]: 977.6 IU/L
ALT [1]: 35.6 IU/L
AST [1]: 68 IU/L
BUN [1]: 13.8 mg/dL
CRE [1]: 0.4 mg/dL
Ca [1]: 10.8 mg/dL
Cl [1]: 101 meq/L
DBIL [1]: 0.08 mg/dL
GLC [1]: 210.2 mg/dL
IP [1]: 7.8 mg/dL
K [1]: 3.9 meq/L
LDH [1]: 174.8 IU/L
Na [1]: 140.4 meq/L
PL [1]: 149 mg/dL
RALB [1]: 3.4 g/dL
TBIL [1]: 0.1 mg/dL
TC [1]: 74 mg/dL
TG [1]: 99.2 mg/dL
TP [1]: 5.5 g/dL
gamma-GTP [1]: 1 IU/L
TERMINAL_BW [2]: 269.1 g
TERMINAL_BW [3]: 307.1 g
TERMINAL_BW [4]: 407.1 g
APTT [2]: 20.5 s
Bas [2]: 0%
Eos [2]: 0.8%
Fbg [2]: 222.8 mg/dL
Hb [2]: 14 g/dL
Ht [2]: 41.2%
Lym [2]: 79%
MCH [2]: 21.1 pg
MCHC [2]: 34%
MCV [2]: 61.8 fL
Mono [2]: 2.8%
Neu [2]: 16.6%
PT [2]: 12.1 s
Plat [2]: 123.3 x10_4/uL
RBC [2]: 666 x10_4/ul
Ret [2]: 5.6%
WBC [2]: 125.1 x10_2/uL
APTT [3]: 18.9 s
Bas [3]: 0%
Eos [3]: 1%
Fbg [3]: 213.6 mg/dL
Hb [3]: 14.5 g/dL
Ht [3]: 42.1%
Lym [3]: 77.2%
MCH [3]: 20.3 pg
MCHC [3]: 34.5%
MCV [3]: 58.9 fL
Mono [3]: 2.4%
Neu [3]: 18.8%
PT [3]: 11.9 s
Plat [3]: 114.5 x10_4/uL
RBC [3]: 714.8 x10_4/ul
Ret [3]: 3.8%
WBC [3]: 113.5 x10_2/uL
APTT [4]: 20.5 s
Bas [4]: 0%
Eos [4]: 1%
Fbg [4]: 216 mg/dL
Hb [4]: 15.3 g/dL
Ht [4]: 43.5%
Lym [4]: 79.2%
MCH [4]: 19.6 pg
MCHC [4]: 35.1%
MCV [4]: 55.9 fL
Mono [4]: 2%
Neu [4]: 16.8%
PT [4]: 12.4 s
Plat [4]: 113.3 x10_4/uL
RBC [4]: 778.4 x10_4/ul
Ret [4]: 2.2%
WBC [4]: 104.9 x10_2/uL
KIDNEY_L [2]: 1.1 g
KIDNEY_R [2]: 1.1 g
KIDNEY_TOTAL [2]: 2.2 g
KIDNEY_L [3]: 1.2 g
KIDNEY_R [3]: 1.2 g
KIDNEY_TOTAL [3]: 2.4 g
KIDNEY_L [4]: 1.5 g
KIDNEY_R [4]: 1.5 g
KIDNEY_TOTAL [4]: 2.9 g
LIVER [2]: 12.6 g
LIVER [3]: 13 g
LIVER [4]: 16.6 g
A/G [2]: 1.5
ALP [2]: 874.2 IU/L
ALT [2]: 34.6 IU/L
AST [2]: 62.2 IU/L
BUN [2]: 16.8 mg/dL
CRE [2]: 0.4 mg/dL
Ca [2]: 10.7 mg/dL
Cl [2]: 103.2 meq/L
DBIL [2]: 0.092 mg/dL
GLC [2]: 198 mg/dL
IP [2]: 7.6 mg/dL
K [2]: 3.8 meq/L
LDH [2]: 173.8 IU/L
Na [2]: 140.6 meq/L
PL [2]: 153 mg/dL
RALB [2]: 3.5 g/dL
TBIL [2]: 0.2 mg/dL
TC [2]: 70.6 mg/dL
TG [2]: 131.8 mg/dL
TP [2]: 5.8 g/dL
gamma-GTP [2]: 0.8 IU/L
A/G [3]: 1.5
ALP [3]: 742.4 IU/L
ALT [3]: 34.8 IU/L
AST [3]: 60.6 IU/L
BUN [3]: 16 mg/dL
CRE [3]: 0.4 mg/dL
Ca [3]: 10.6 mg/dL
Cl [3]: 102.4 meq/L
DBIL [3]: 0.082 mg/dL
GLC [3]: 240.8 mg/dL
IP [3]: 7.6 mg/dL
K [3]: 3.4 meq/L
LDH [3]: 177.2 IU/L
Na [3]: 141 meq/L
PL [3]: 144.6 mg/dL
RALB [3]: 3.5 g/dL
TBIL [3]: 0.1 mg/dL
TC [3]: 70 mg/dL
TG [3]: 125.2 mg/dL
TP [3]: 5.8 g/dL
gamma-GTP [3]: 0.8 IU/L
A/G [4]: 1.3
ALP [4]: 506.2 IU/L
ALT [4]: 32.2 IU/L
AST [4]: 65.2 IU/L
BUN [4]: 18.8 mg/dL
CRE [4]: 0.5 mg/dL
Ca [4]: 10.4 mg/dL
Cl [4]: 103 meq/L
DBIL [4]: 0.1 mg/dL
GLC [4]: 233 mg/dL
IP [4]: 7.1 mg/dL
K [4]: 3.8 meq/L
LDH [4]: 223.6 IU/L
Na [4]: 141.2 meq/L
PL [4]: 145.8 mg/dL
RALB [4]: 3.4 g/dL
TBIL [4]: 0.1 mg/dL
TC [4]: 72 mg/dL
TG [4]: 115.2 mg/dL
TP [4]: 6.1 g/dL
gamma-GTP [4]: 0.8 IU/L
TERMINAL_BW [5]: 235.6 g
APTT [5]: 22.5 s
Bas [5]: 0%
Eos [5]: 1%
Fbg [5]: 213.8 mg/dL
Hb [5]: 13.1 g/dL
Ht [5]: 39.1%
Lym [5]: 76.6%
MCH [5]: 20.8 pg
MCHC [5]: 33.6%
MCV [5]: 61.9 fL
Mono [5]: 2.8%
Neu [5]: 18.8%
PT [5]: 13.5 s
Plat [5]: 126.1 x10_4/uL
RBC [5]: 631.2 x10_4/ul
Ret [5]: 6.4%
WBC [5]: 124.8 x10_2/uL
KIDNEY_L [5]: 1 g
KIDNEY_R [5]: 1 g
KIDNEY_TOTAL [5]: 2.1 g
LIVER [5]: 11 g
A/G [5]: 1.6
ALP [5]: 1017.8 IU/L
ALT [5]: 39.2 IU/L
AST [5]: 68.2 IU/L
BUN [5]: 14.4 mg/dL
CRE [5]: 0.4 mg/dL
Ca [5]: 10.6 mg/dL
Cl [5]: 100.2 meq/L
DBIL [5]: 0.08 mg/dL
GLC [5]: 203.4 mg/dL
IP [5]: 8.7 mg/dL
K [5]: 4 meq/L
LDH [5]: 174.4 IU/L
Na [5]: 139.6 meq/L
PL [5]: 129.6 mg/dL
RALB [5]: 3.5 g/dL
TBIL [5]: 0.1 mg/dL
TC [5]: 56.6 mg/dL
TG [5]: 97 mg/dL
TP [5]: 5.7 g/dL
gamma-GTP [5]: 1.2 IU/L
TERMINAL_BW [6]: 268.3 g
TERMINAL_BW [7]: 312.6 g
TERMINAL_BW [8]: 389.5 g
APTT [6]: 22.7 s
Bas [6]: 0%
Eos [6]: 1%
Fbg [6]: 206.4 mg/dL
Hb [6]: 13.7 g/dL
Ht [6]: 40.1%
Lym [6]: 81.8%
MCH [6]: 20.8 pg
MCHC [6]: 34.2%
MCV [6]: 60.8 fL
Mono [6]: 2.2%
Neu [6]: 14.8%
PT [6]: 13.3 s
Plat [6]: 121.3 x10_4/uL
RBC [6]: 660 x10_4/ul
Ret [6]: 5.6%
WBC [6]: 94 x10_2/uL
APTT [7]: 22.1 s
Bas [7]: 0%
Eos [7]: 0.8%
Fbg [7]: 192.2 mg/dL
Hb [7]: 14.3 g/dL
Ht [7]: 41.5%
Lym [7]: 79.6%
MCH [7]: 20.8 pg
MCHC [7]: 34.6%
MCV [7]: 60.2 fL
Mono [7]: 2.2%
Neu [7]: 16.4%
PT [7]: 13.8 s
Plat [7]: 125.2 x10_4/uL
RBC [7]: 689 x10_4/ul
Ret [7]: 3.8%
WBC [7]: 109.7 x10_2/uL
APTT [8]: 24.9 s
Bas [8]: 0%
Eos [8]: 1.2%
Fbg [8]: 184.4 mg/dL
Hb [8]: 15.3 g/dL
Ht [8]: 44%
Lym [8]: 80%
MCH [8]: 19.7 pg
MCHC [8]: 34.7%
MCV [8]: 56.6 fL
Mono [8]: 2%
Neu [8]: 15.8%
PT [8]: 14 s
Plat [8]: 114 x10_4/uL
RBC [8]: 779.4 x10_4/ul
Ret [8]: 1.9%
WBC [8]: 137.8 x10_2/uL
KIDNEY_L [6]: 1.1 g
KIDNEY_R [6]: 1.1 g
KIDNEY_TOTAL [6]: 2.2 g
KIDNEY_L [7]: 1.3 g
KIDNEY_R [7]: 1.2 g
KIDNEY_TOTAL [7]: 2.5 g
KIDNEY_L [8]: 1.4 g
KIDNEY_R [8]: 1.4 g
KIDNEY_TOTAL [8]: 2.8 g
LIVER [6]: 12.3 g
LIVER [7]: 13.8 g
LIVER [8]: 17.2 g
A/G [6]: 1.7
ALP [6]: 1036.6 IU/L
ALT [6]: 32.8 IU/L
AST [6]: 61.2 IU/L
BUN [6]: 15.2 mg/dL
CRE [6]: 0.4 mg/dL
Ca [6]: 10.5 mg/dL
Cl [6]: 103.2 meq/L
DBIL [6]: 0.086 mg/dL
GLC [6]: 195.8 mg/dL
IP [6]: 7.9 mg/dL
K [6]: 3.8 meq/L
LDH [6]: 205.8 IU/L
Na [6]: 141.6 meq/L
PL [6]: 143 mg/dL
RALB [6]: 3.7 g/dL
TBIL [6]: 0.1 mg/dL
TC [6]: 61 mg/dL
TG [6]: 141.4 mg/dL
TP [6]: 5.9 g/dL
gamma-GTP [6]: 1 IU/L
A/G [7]: 1.7
ALP [7]: 768.4 IU/L
ALT [7]: 28.6 IU/L
AST [7]: 56.2 IU/L
BUN [7]: 16.8 mg/dL
CRE [7]: 0.5 mg/dL
Ca [7]: 10.3 mg/dL
Cl [7]: 101.8 meq/L
DBIL [7]: 0.09 mg/dL
GLC [7]: 215.4 mg/dL
IP [7]: 7.2 mg/dL
K [7]: 3.7 meq/L
LDH [7]: 202.4 IU/L
Na [7]: 140.8 meq/L
PL [7]: 126.8 mg/dL
RALB [7]: 3.6 g/dL
TBIL [7]: 0.1 mg/dL
TC [7]: 49.6 mg/dL
TG [7]: 134 mg/dL
TP [7]: 5.9 g/dL
gamma-GTP [7]: 0.8 IU/L
A/G [8]: 1.6
ALP [8]: 588.2 IU/L
ALT [8]: 34.4 IU/L
AST [8]: 61.6 IU/L
BUN [8]: 18.6 mg/dL
CRE [8]: 0.5 mg/dL
Ca [8]: 10.4 mg/dL
Cl [8]: 103.4 meq/L
DBIL [8]: 0.1 mg/dL
GLC [8]: 221.8 mg/dL
IP [8]: 6.7 mg/dL
K [8]: 3.5 meq/L
LDH [8]: 209 IU/L
Na [8]: 142.4 meq/L
PL [8]: 124.2 mg/dL
RALB [8]: 3.8 g/dL
TBIL [8]: 0.2 mg/dL
TC [8]: 48.6 mg/dL
TG [8]: 144.8 mg/dL
TP [8]: 6.2 g/dL
gamma-GTP [8]: 1 IU/L
